# From ChEMBL document CHEMBL1151433, “National and regional assessment of antimicrobial resistance among community-acquired respiratory tract pathogens identified in a 2005-2006 U.S. Faropenem surveillance study” (2007)
# Legend:
# Haemophilus influenzae [1] = assay: Antibacterial activity against beta lactamase-negative Haemophilus influenzae […] isolated from respiratory tract infected patients after 20 to 24 hrs by broth microdilution method; type: functional; settings: ATCC 49247
# Streptococcus pneumoniae [2] = assay: Antibacterial activity against Streptococcus pneumoniae ATCC 49619 isolated from respiratory tract infected patients assessed as resistant isolates after 20 to 24 hrs by broth microdilution method; type: functional
# Streptococcus pneumoniae [3] = assay: Antibacterial activity against penicillin-intermediate Streptococcus pneumoniae ATCC 49619 isolated from respiratory tract infected patients after 20 to 24 hrs by broth microdilution method; type: functional
# Streptococcus pneumoniae [4] = assay: Antibacterial activity against Streptococcus pneumoniae ATCC 49619 isolated from respiratory tract infected inpatients assessed as resistant isolates after 20 to 24 hrs by broth microdilution method; type: functional
# Streptococcus pneumoniae [5] = assay: Antibacterial activity against Streptococcus pneumoniae ATCC 49619 isolated from respiratory tract infected outpatients assessed as resistant isolates after 20 to 24 hrs by broth microdilution method; type: functional
# Haemophilus influenzae [6] = assay: Antibacterial activity against beta lactamase-positive Haemophilus influenzae […] isolated from respiratory tract infected patients assessed as susceptible isolates after 20 to 24 hrs by broth microdilution method; type: functional, ATCC 49247
# Streptococcus pneumoniae [7] = assay: Antibacterial activity against penicillin-susceptible Streptococcus pneumoniae ATCC 49619 isolated from respiratory tract infected patients assessed as resistant isolates after 20 to 24 hrs by broth microdilution method; type: functional
# Streptococcus pneumoniae [8] = assay: Antibacterial activity against Streptococcus pneumoniae ATCC 49619 isolated from respiratory tract infected patients within 2 years of age after 20 to 24 hrs by broth microdilution method; type: functional
# Moraxella catarrhalis = assay: Antibacterial activity against Moraxella catarrhalis isolated from respiratory tract infected patients after 20 to 24 hrs by broth microdilution method; type: functional
# Streptococcus pneumoniae [9] = assay: Antibacterial activity against Streptococcus pneumoniae ATCC 49619 isolated from respiratory tract infected patients after 20 to 24 hrs by broth microdilution method; type: functional
# Streptococcus pneumoniae [10] = assay: Antibacterial activity against penicillin-intermediate Streptococcus pneumoniae ATCC 49619 isolated from respiratory tract infected patients assessed as susceptible isolates after 20 to 24 hrs by broth microdilution method; type: functional
# Haemophilus influenzae [11] = assay: Antibacterial activity against beta lactamase-positive Haemophilus influenzae […] isolated from respiratory tract infected patients after 20 to 24 hrs by broth microdilution method; type: functional; settings: ATCC 49247
# Streptococcus pneumoniae [12] = assay: Antibacterial activity against Streptococcus pneumoniae ATCC 49619 isolated from respiratory tract infected inpatients after 20 to 24 hrs by broth microdilution method; type: functional
# Streptococcus pneumoniae [13] = assay: Antibacterial activity against Streptococcus pneumoniae ATCC 49619 isolated from respiratory tract infected patients assessed as susceptible isolates after 20 to 24 hrs by broth microdilution method; type: functional
# Streptococcus pneumoniae [14] = assay: Antibacterial activity against Streptococcus pneumoniae ATCC 49619 isolated from respiratory tract infected patients with 6 to 14 years of age assessed as resistant isolates after 20 to 24 hrs by broth microdilution method; type: functional
# Haemophilus influenzae [15] = assay: Antibacterial activity against Haemophilus influenzae […] isolated from respiratory tract infected patients assessed as susceptible isolates after 20 to 24 hrs by broth microdilution method; type: functional, ATCC 49247
# Streptococcus pneumoniae [16] = assay: Antibacterial activity against Streptococcus pneumoniae ATCC 49619 isolated from respiratory tract infected female patients assessed as resistant isolates after 20 to 24 hrs by broth microdilution method; type: functional
# Streptococcus pneumoniae [17] = assay: Antibacterial activity against Streptococcus pneumoniae ATCC 49619 isolated from respiratory tract infected male patients assessed as resistant isolates after 20 to 24 hrs by broth microdilution method; type: functional
# Streptococcus pneumoniae [18] = assay: Antibacterial activity against Streptococcus pneumoniae ATCC 49619 isolated from respiratory tract infected female patients after 20 to 24 hrs by broth microdilution method; type: functional
# Streptococcus pneumoniae [19] = assay: Antibacterial activity against Streptococcus pneumoniae ATCC 49619 isolated from respiratory tract infected patients with 15 to 64 years of age after 20 to 24 hrs by broth microdilution method; type: functional
# Streptococcus pneumoniae [20] = assay: Antibacterial activity against Streptococcus pneumoniae ATCC 49619 isolated from respiratory tract infected patients more than 65 years of age assessed as resistant isolates after 20 to 24 hrs by broth microdilution method; type: functional
# Haemophilus influenzae [21] = assay: Antibacterial activity against beta lactamase-negative Haemophilus influenzae […] isolated from respiratory tract infected patients assessed as susceptible isolates after 20 to 24 hrs by broth microdilution method; type: functional
# Streptococcus pneumoniae [22] = assay: Antibacterial activity against penicillin-resistant Streptococcus pneumoniae ATCC 49619 isolated from respiratory tract infected patients assessed as susceptible isolates after 20 to 24 hrs by broth microdilution method; type: functional
# Streptococcus pneumoniae [23] = assay: Antibacterial activity against Streptococcus pneumoniae ATCC 49619 isolated from respiratory tract infected outpatients after 20 to 24 hrs by broth microdilution method; type: functional
# Streptococcus pneumoniae [24] = assay: Antibacterial activity against Streptococcus pneumoniae ATCC 49619 isolated from respiratory tract infected patients with 3 to 5 years of age after 20 to 24 hrs by broth microdilution method; type: functional
# Streptococcus pneumoniae [25] = assay: Antibacterial activity against Streptococcus pneumoniae ATCC 49619 isolated from respiratory tract infected patients with 3 to 5 years of age assessed as resistant isolates after 20 to 24 hrs by broth microdilution method; type: functional
# Streptococcus pneumoniae [26] = assay: Antibacterial activity against Streptococcus pneumoniae ATCC 49619 isolated from respiratory tract infected patients with 15 to 64 years of age assessed as resistant isolates after 20 to 24 hrs by broth microdilution method; type: functional
# Streptococcus pneumoniae [27] = assay: Antibacterial activity against penicillin-susceptible Streptococcus pneumoniae ATCC 49619 isolated from respiratory tract infected patients after 20 to 24 hrs by broth microdilution method; type: functional
# Streptococcus pneumoniae [28] = assay: Antibacterial activity against penicillin-resistant Streptococcus pneumoniae ATCC 49619 isolated from respiratory tract infected patients after 20 to 24 hrs by broth microdilution method; type: functional
# Streptococcus pneumoniae [29] = assay: Antibacterial activity against Streptococcus pneumoniae ATCC 49619 isolated from respiratory tract infected patients within 2 years of age assessed as resistant isolates after 20 to 24 hrs by broth microdilution method; type: functional
# Streptococcus pneumoniae [30] = assay: Antibacterial activity against Streptococcus pneumoniae ATCC 49619 isolated from respiratory tract infected patients with 6 to 14 years of age after 20 to 24 hrs by broth microdilution method; type: functional
# Streptococcus pneumoniae [31] = assay: Antibacterial activity against Streptococcus pneumoniae ATCC 49619 isolated from respiratory tract infected patients more than 65 years of age after 20 to 24 hrs by broth microdilution method; type: functional
# Streptococcus pneumoniae [32] = assay: Antibacterial activity against penicillin-intermediate Streptococcus pneumoniae ATCC 49619 isolated from respiratory tract infected patients assessed as resistant isolates after 20 to 24 hrs by broth microdilution method; type: functional
# Streptococcus pneumoniae [33] = assay: Antibacterial activity against Streptococcus pneumoniae ATCC 49619 isolated from respiratory tract infected male patients after 20 to 24 hrs by broth microdilution method; type: functional
# Streptococcus pneumoniae [34] = assay: Antibacterial activity against penicillin-susceptible Streptococcus pneumoniae ATCC 49619 isolated from respiratory tract infected patients assessed as susceptible isolates after 20 to 24 hrs by broth microdilution method; type: functional
# Streptococcus pneumoniae [35] = assay: Antibacterial activity against penicillin-resistant Streptococcus pneumoniae ATCC 49619 isolated from respiratory tract infected patients assessed as resistant isolates after 20 to 24 hrs by broth microdilution method; type: functional
# Haemophilus influenzae [36] = assay: Antibacterial activity against Haemophilus influenzae […] isolated from respiratory tract infected patients after 20 to 24 hrs by broth microdilution method; type: functional; settings: ATCC 49247
smiles,measurement,setting,value
CC[C@H]1OC(=O)[C@H](C)[C@@H](O[C@H]2C[C@@](C)(OC)[C@@H](O)[C@H](C)O2)[C@H](C)[C@@H](O[C@@H]2O[C@H](C)C[C@H](N(C)C)[C@H]2O)[C@](C)(O)C[C@@H](C)CN(C)[C@H](C)[C@@H](O)[C@]1(C)O [AZITHROMYCIN],MIC50,Haemophilus influenzae [1],1 µg/mL
same,MIC90,Haemophilus influenzae [1],2 µg/mL
same,Activity,Streptococcus pneumoniae [2],34%
same,MIC50,Streptococcus pneumoniae [3],4 µg/mL
same,MIC90,Streptococcus pneumoniae [3],> 16 µg/mL
same,Activity,Streptococcus pneumoniae [4],33%
same,Activity,Streptococcus pneumoniae [5],34.8%
same,Activity,Haemophilus influenzae [6],98.1%
same,Activity,Streptococcus pneumoniae [7],11.3%
same,MIC90,Streptococcus pneumoniae [8],> 16 µg/mL
same,MIC50,Moraxella catarrhalis,≤ 0.12 µg/mL
same,MIC90,Moraxella catarrhalis,≤ 0.12 µg/mL
same,MIC50,Streptococcus pneumoniae [9],≤ 0.12 µg/mL
same,MIC90,Streptococcus pneumoniae [9],> 16 µg/mL
same,Activity,Streptococcus pneumoniae [10],35.5%
same,MIC50,Haemophilus influenzae [11],1 µg/mL
same,MIC90,Haemophilus influenzae [11],2 µg/mL
same,MIC90,Streptococcus pneumoniae [12],> 16 µg/mL
same,Activity,Streptococcus pneumoniae [13],65.5%
same,Activity,Streptococcus pneumoniae [14],36%
same,Activity,Haemophilus influenzae [15],98.7%
same,Activity,Streptococcus pneumoniae [16],31.2%
same,Activity,Streptococcus pneumoniae [17],36%
same,MIC90,Streptococcus pneumoniae [18],> 16 µg/mL
same,MIC90,Streptococcus pneumoniae [19],> 16 µg/mL
same,Activity,Streptococcus pneumoniae [20],33.8%
same,Activity,Haemophilus influenzae [21],98.9%
same,Activity,Streptococcus pneumoniae [22],19.4%
same,MIC90,Streptococcus pneumoniae [23],> 16 µg/mL
same,MIC90,Streptococcus pneumoniae [24],> 16 µg/mL
same,Activity,Streptococcus pneumoniae [25],42.4%
same,Activity,Streptococcus pneumoniae [26],27.6%
same,MIC50,Streptococcus pneumoniae [27],≤ 0.12 µg/mL
same,MIC90,Streptococcus pneumoniae [27],4 µg/mL
same,MIC50,Streptococcus pneumoniae [28],32 µg/mL
same,MIC90,Streptococcus pneumoniae [28],> 16 µg/mL
same,Activity,Streptococcus pneumoniae [29],50.5%
same,MIC90,Streptococcus pneumoniae [30],> 16 µg/mL
same,MIC90,Streptococcus pneumoniae [31],> 16 µg/mL
same,Activity,Streptococcus pneumoniae [32],64.5%
same,MIC90,Streptococcus pneumoniae [33],> 16 µg/mL
same,Activity,Streptococcus pneumoniae [34],87.9%
same,Activity,Streptococcus pneumoniae [35],80.6%
same,MIC50,Haemophilus influenzae [36],1 µg/mL
same,MIC90,Haemophilus influenzae [36],2 µg/mL
C=CC1=C(C(=O)O)N2C(=O)[C@@H](NC(=O)/C(=N\O)c3csc(N)n3)[C@H]2SC1 [CEFDINIR],% susceptible,Haemophilus influenzae [1],1%
same,MIC50,Haemophilus influenzae [1],0.25 µg/mL
same,Activity,Streptococcus pneumoniae [2],19.2%
same,MIC50,Streptococcus pneumoniae [3],0.25 µg/mL
same,MIC90,Streptococcus pneumoniae [3],2 µg/mL
same,Activity,Streptococcus pneumoniae [4],18.8%
same,Activity,Streptococcus pneumoniae [5],19.6%
same,Activity,Haemophilus influenzae [6],94.4%
same,Activity,Streptococcus pneumoniae [7],0%
same,MIC90,Streptococcus pneumoniae [8],> 8 µg/mL
same,MIC50,Moraxella catarrhalis,0.25 µg/mL
same,MIC90,Moraxella catarrhalis,0.5 µg/mL
same,MIC50,Streptococcus pneumoniae [9],0.12 µg/mL
same,MIC90,Streptococcus pneumoniae [9],8 µg/mL
same,Activity,Streptococcus pneumoniae [10],67.5%
same,% susceptible,Haemophilus influenzae [11],1%
same,MIC50,Haemophilus influenzae [11],0.25 µg/mL
same,MIC90,Streptococcus pneumoniae [12],8 µg/mL
same,Activity,Streptococcus pneumoniae [13],76.8%
same,Activity,Streptococcus pneumoniae [14],19.8%
same,Activity,Haemophilus influenzae [15],94.8%
same,Activity,Streptococcus pneumoniae [16],18.3%
same,Activity,Streptococcus pneumoniae [17],19.8%
same,MIC90,Streptococcus pneumoniae [18],8 µg/mL
same,MIC90,Streptococcus pneumoniae [19],4 µg/mL
same,Activity,Streptococcus pneumoniae [20],15.8%
same,Activity,Haemophilus influenzae [21],95%
same,Activity,Streptococcus pneumoniae [22],0%
same,MIC90,Streptococcus pneumoniae [23],8 µg/mL
same,MIC90,Streptococcus pneumoniae [24],> 8 µg/mL
same,Activity,Streptococcus pneumoniae [25],23.2%
same,Activity,Streptococcus pneumoniae [26],15.4%
same,MIC50,Streptococcus pneumoniae [27],≤ 0.06 µg/mL
same,MIC90,Streptococcus pneumoniae [27],0.12 µg/mL
same,MIC50,Streptococcus pneumoniae [28],8 µg/mL
same,Activity,Streptococcus pneumoniae [29],33.2%
same,MIC90,Streptococcus pneumoniae [30],8 µg/mL
same,MIC90,Streptococcus pneumoniae [31],4 µg/mL
same,Activity,Streptococcus pneumoniae [32],14.8%
same,MIC90,Streptococcus pneumoniae [33],8 µg/mL
same,Activity,Streptococcus pneumoniae [34],99.9%
same,Activity,Streptococcus pneumoniae [35],100%
same,% susceptible,Haemophilus influenzae [36],1%
same,MIC50,Haemophilus influenzae [36],0.25 µg/mL
